In ChEMBL document CHEMBL4052788, “Pocket detection and interaction-weighted ligand-similarity search yields novel high-affinity binders for Myocilin-OLF, a protein implicated in glaucoma” (Bioorg Med Chem Lett, 2017):

Experiments:
Myocilin (Homo sapiens) [1] = target: T1, Myocilin (Homo sapiens) (UniProt Q99972); experiment: Binding affinity myocilin-OLF domain (unknown origin) assessed as change in melting temperature by Sypro Orange dye-based DSF assay
T1 sequence (whole entry): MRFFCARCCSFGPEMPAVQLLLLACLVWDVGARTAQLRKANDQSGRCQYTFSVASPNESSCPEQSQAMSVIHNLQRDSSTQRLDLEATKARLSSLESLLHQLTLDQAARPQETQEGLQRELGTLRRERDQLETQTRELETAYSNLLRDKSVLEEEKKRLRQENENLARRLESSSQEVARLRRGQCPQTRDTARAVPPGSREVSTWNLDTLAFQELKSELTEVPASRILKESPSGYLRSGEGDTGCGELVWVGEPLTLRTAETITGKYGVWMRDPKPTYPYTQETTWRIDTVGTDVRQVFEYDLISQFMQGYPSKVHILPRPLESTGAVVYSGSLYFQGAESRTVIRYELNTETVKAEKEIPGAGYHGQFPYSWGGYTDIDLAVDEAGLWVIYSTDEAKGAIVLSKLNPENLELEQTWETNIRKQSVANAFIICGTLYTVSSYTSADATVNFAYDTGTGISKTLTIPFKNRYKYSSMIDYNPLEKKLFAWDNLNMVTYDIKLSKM

Myocilin [2] = target: T2, Myocilin (Homo sapiens, UniProt Q99972); experiment: Binding affinity myocilin-OLF domain (unknown origin) by Sypro Orange dye-based DSF assay; conditions: read-out: Kd(app)
T2 sequence (Q99972 whole entry): T1 sequence (whole entry)

Myocilin (Homo sapiens) [3] = target: T1, Myocilin (Homo sapiens); experiment: Binding affinity myocilin-OLF domain (unknown origin) assessed as change in melting temperature by SRP assay
Myocilin [4] = target: T2, Myocilin; experiment: Binding affinity myocilin-OLF domain (unknown origin) by SRP assay

ΔTm (Myocilin (Homo sapiens) [1]) [°C]	Kd (Myocilin [2]) [µM]	ΔTm (Myocilin (Homo sapiens) [3]) [°C]	Kd (Myocilin [4]) [µM]	Compound
16.4	0.099	–	–	O=C(/C=C/c1ccc(O)c(O)c1)c1ccccc1O
32	–	–	–	COc1cccc(NC(S)=Nc2ccc(O)cc2)c1
2.02	170	–	–	O=C1c2ccccc2C(=O)C1C(c1ccc([N+](=O)[O-])cc1)C1C(=O)c2ccccc2C1=O
1.96	200	–	–	O=C(Cn1ccc(=O)[nH]c1=O)Nc1ccc(C(=O)O)c(O)c1
0.91	300	–	–	COc1cc(C(=O)C(=O)c2ccc(O)c(OC)c2)ccc1O
–	–	-0.3	41.6	O=c1cc(-c2ccc(O)cc2)oc2cc(O)cc(O)c12 [APIGENIN]
6.3	11	–	–	Cc1ccc(C(C)C)cc1NC(=O)Nc1ccc([N+](=O)[O-])cc1
–	–	0.2	33.5	O=C1Nc2ccc(I)cc2C1=Cc1cc(Br)c(O)c(Br)c1 [GW305074X]
1.5	220	–	–	CN(C)c1ccc(/C=C/C(=O)c2cc(Cl)ccc2O)cc1
1.78	190	–	–	Nc1nc(N)c(/N=N/c2ccc(C(=O)O)cc2)c(N)n1

Compound	ΔTm (Myocilin (Homo sapiens) [1]) [°C]	Kd (Myocilin [2]) [µM]	ΔTm (Myocilin (Homo sapiens) [3]) [°C]	Kd (Myocilin [4]) [µM]
O=C(Nc1ccc(Oc2ccc(NC(=O)Nc3ccc([N+](=O)[O-])cc3)cc2)cc1)Nc1ccc([N+](=O)[O-])cc1	11.2	0.65	–	–
Cc1cc(N(CCCl)CCCl)ccc1/C=N/NC(=O)Cc1cc(=O)oc2cc(O)ccc12	1.6	210	–	–
